Laboratory results: patent US10231453B2, “5-substituted imidazole derivatives” (BAYER CROPSCIENCE AKTIENGESELLSCHAFT, priority 2015, dated 2019)
Marks after values point to notes of the source that are not given here.

What was measured:
[1] = Measurement of LogP values by HPLC on reversed phase columns (EEC directive 79/831 Annex V.A8); format: physicochemical; settings: for chromatographic logP: method [a]: LC-UV, acidic range, 0.1% formic acid in water and acetonitrile as eluent
Procedure: Measurement of Log P values was performed as outlined above.

Puccinia recondita = assay: In vivo preventive test on Puccinia recondita (brown rust on wheat), Examples C and R3; settings: Puccinia recondita, 264 h; 500 ppm of active ingredient; wheat, preventive spray, evaluated 11 days after inoculation; read-out: efficacy
Septoria tritici = assay: In vivo preventive test on Septoria tritici (leaf spot on wheat), Examples E, Q3 and R5; settings: Zymoseptoria tritici, 576 h, 500 ppm of active ingredient; wheat, preventive spray, evaluated 24 days after inoculation; read-out: efficacy
Sphaerotheca fuliginea = assay: In vivo preventive test on Sphaerotheca fuliginea (powdery mildew on cucurbits), Examples F and R6; settings: Podosphaera fuliginea, 360 h; 500 ppm of active ingredient; gherkin, preventive spray, evaluated 15 days after inoculation; read-out: efficacy
Uromyces appendiculatus = assay: In vivo preventive test on Uromyces appendiculatus (bean rust), Examples G and R7; settings: 264 h, 500 ppm of active ingredient, bean, preventive spray, evaluated 11 days after inoculation, read-out: efficacy
Pyrenophora teres = assay: In vivo preventive test on Pyrenophora teres (net blotch on barley), Examples D, Q2 and R4; settings: Pyrenophora teres, 336 h, read-out: Efficacy in %; for pest or weed control at 100 ppm: Example R4, rate of application 100 ppm; for pest or weed control at 500 ppm: Example R4, rate of application 500 ppm
[2] = Table 2, compounds of formula (XVII)

`CC(C)C(O)(Cc1ccc(F)cc1)Cn1cncc1C#N` (stereo not drawn) [Example I-162] showed a chromatographic logP ([1]; Table 1) of 2.44.

For `N#Cc1cncn1CC(O)(Cc1ccncc1F)C1(Cl)CC1` (stereo not drawn) [Example I-163], the chromatographic logP ([1]; Table 1) was 1.62.

For `N#Cc1cncn1CC(O)(Cc1ccnnc1Cl)C1(Cl)CC1` (stereo not drawn) [Example I-168], the chromatographic logP ([1]; Table 1) was 1.59.

In the case of `O=C(Cc1ccccc1)c1cncn1CC(O)(Cc1ccccc1)C1(Cl)CC1` (stereo not drawn) [Example I-169], the chromatographic logP ([1]; Table 1) is reported as 3.56, the pest or weed control at 500 ppm (Puccinia recondita) is reported as 70 to 79% and the pest or weed control at 500 ppm (Septoria tritici) is reported as 70 to 79%. It also gave a pest or weed control at 500 ppm (Sphaerotheca fuliginea) of 90 to 100% and a pest or weed control at 500 ppm (Uromyces appendiculatus) of 70 to 79%.

In the case of `O=C(Cn1cncc1Cl)C1(Cl)CC1` [XVII-1, 1-(1-chlorocyclopropyl)-2-(5-chloro-1H-imidazol-1-yl)ethanone], the chromatographic logP [1, 2] is reported as 0.75.

Molecule `N#Cc1cncn1CC(=O)C1(Cl)CC1` [XVII-2, 1-[2-(1-chlorocyclopropyl)-2-oxoethyl]-1H-imidazole-5-carbonitrile] has a chromatographic logP [1, 2] of 1.35.

For `N#Cc1cncn1CC(=O)C1CC1` [XVII-3], the chromatographic logP [1, 2] was 0.74.

Work on `N#Cc1cncn1CC(=O)C1(F)CC1` [XVII-4] yielded a chromatographic logP [1, 2] of 1.05.

`O=C(Cn1cncc1F)C1(Cl)CC1` [XVII-5] showed a chromatographic logP [1, 2] of 0.32.

`COC(=O)c1cncn1CC(=O)C1(Cl)CC1` [XVII-6] gave a chromatographic logP [1, 2] of 1.2.

Work on `CC(C)(C)C(=O)Cn1cncc1C#N` [XVII-7] yielded a chromatographic logP [1, 2] of 1.47.

With `CC(C)(Cl)C(=O)Cn1cncc1C#N` [XVII-8] the LogP [1] was 1.65^[a].

In the case of `N#Cc1cncn1CC(=O)C1(C#N)CC1` [XVII-9], the chromatographic logP [1, 2] is reported as 0.9.

`O=C(Cn1cncc1I)C1(Cl)CC1` [XVII-10] gave a chromatographic logP [1, 2] of 0.7.

For `CC(C)(F)C(=O)Cn1cncc1C#N` [XVII-11], the chromatographic logP [1, 2] was 1.31.

With `N#Cc1cncn1CC(=O)CC1CC1` [XVII-12] the chromatographic logP [1, 2] was 1.27.

Work on `CC(C)(C)CC(=O)Cn1cncc1C#N` [XVII-13] yielded a chromatographic logP [1, 2] of 1.88.

With `CC(C)C(=O)Cn1cncc1C#N` [XVII-14] the chromatographic logP [1, 2] was 1.14.

Work on `N#Cc1cncn1CC(=O)C1CCCC1` [XVII-15] yielded a chromatographic logP [1, 2] of 1.57.

Molecule `N#Cc1cncn1CC(=O)C1(F)CCCC1` [XVII-16] has a chromatographic logP [1, 2] of 1.81.

Work on `N#Cc1cncn1CC(=O)C1CCC1` [XVII-17] yielded a chromatographic logP [1, 2] of 1.26.

Work on `N#Cc1cncn1CC(=O)C1(Cl)CCC1` [XVII-18] yielded a chromatographic logP [1, 2] of 1.86.

For `CCCCC(=O)Cn1cncc1C#N` [XVII-19], the chromatographic logP [1, 2] was 1.6.

Work on `OC(Cc1ccccc1Cl)(Cn1cnc(Br)c1)C1(Cl)CC1` (stereo not drawn) [drawing 106, reference compound] yielded a pest or weed control at 100 ppm (Pyrenophora teres) of 0% and a pest or weed control at 500 ppm (Pyrenophora teres) of 0%.

Work on `N#Cc1cn(CC(O)(Cc2ccccc2Cl)C2(Cl)CC2)cn1` (stereo not drawn) [drawing 108, reference compound] yielded a pest or weed control at 100 ppm (Pyrenophora teres) of 0% and a pest or weed control at 500 ppm (Pyrenophora teres) of 0%.

Work on `C#Cc1cn(CC(O)(Cc2ccccc2F)C2(Cl)CC2)cn1` (stereo not drawn) [drawing 110, reference compound] yielded a pest or weed control at 100 ppm (Pyrenophora teres) of 0% and a pest or weed control at 500 ppm (Pyrenophora teres) of 0%.

`OC(Cc1ccccc1F)(Cn1cnc(Cl)c1)C1(Cl)CC1` (stereo not drawn) [drawing 112, reference compound] showed a pest or weed control at 100 ppm (Pyrenophora teres) of 0% and a pest or weed control at 500 ppm (Pyrenophora teres) of 0%.

In the case of `OC(Cc1ccccc1F)(Cn1ccnc1Cl)C1(Cl)CC1` (stereo not drawn) [drawing 113, reference compound], the pest or weed control at 100 ppm (Pyrenophora teres) is reported as 0% and the pest or weed control at 500 ppm (Pyrenophora teres) is reported as 0%.

`N#Cc1cn(CC(O)(Cc2ccccc2F)C2(Cl)CC2)cn1` (stereo not drawn) [drawing 121, reference compound] showed a pest or weed control at 100 ppm (Pyrenophora teres) of 0% and a pest or weed control at 500 ppm (Pyrenophora teres) of 0%.
